Experimental data reported in patent US5652220A, “Encapsulation of TRH or its analog” (Takeda Chemical Industries, Ltd., priority 1986, dated 1997).

Tests used:
[1] = in vitro dissolution test: residual drug in microcapsules standing in phosphate buffer (pH 7.0) at 37° C.; type: physicochemical
Description: (§1) The microcapsules obtained by charging TRH in an amount of 1-20% based on PLGA and following the above procedure were tested for drug trapping percentage (percentage of amount actually incorporated into microcapsules to amount charged) and further assayed, in an in vitro dissolution test, for residual TRH in microcapsules after one day of standing in phoshpate buffer (pH 7.0) at 37° C.
(b) 1/30M phosphate buffer (pH 7.0), 37° C. (mean for n = 2).
The microcapsules obtained by the procedure of Example 1 were examined for in vitro drug release property and for in vivo drug release property after subcutaneous administration to rats (the residual drug amount in microcapsules at the site of administration was determined).
(§2) For these microcapsules, the percentage of trapping of CG-3509 was determined and the residual CG-3509 in the microcapsules after one-day standing in phosphate buffer (pH 7.0) at 37° C. was assayed in an in vitro dissolution test.

[2] = drug trapping percentage into microcapsules (amount actually incorporated vs amount charged); type: physicochemical; settings: comparison microcapsules, 53 mg TRH, w/o emulsion viscosity about 2,000 cp
Description: as §1, §2

With `NC(=O)[C@@H]1CCCN1C(=O)[C@H](Cc1cnc[nH]1)NC(=O)[C@@H]1CCC(=O)N1` [TRH, pyroGlu-His-ProNH2] as the compound, how does the first day release ([1]; Example 2, TRH 2% relative to PLGA, free form or strong acid added) read?
Its first day release is 15.8%.

What about the initial release ([1]; Example 2, acetic acid added, TRH 2% relative to PLGA) of the same compound?
The initial release was 33.2%.

And the “release of the first day” value ([1]; TRH concentration relative to PLGA 1%)?
The value was 65.7%.

And the initial release ([1]; acetic acid added, TRH 5% relative to PLGA)?
The initial release was 22.6%.

And the initial release ([1]; comparison microcapsules, TRH to PLGA 0.88%)?
The initial release was 67%.

And the initial release ([1]; comparison microcapsules, TRH to PLGA 1.33%)?
Its initial release is 71%.

What about the trapping percentage ([2]; 4 g PLGA, TRH to PLGA 1.33%) of the same compound?
Its trapping percentage is 77%.

And the trapping percentage ([2]; 6 g PLGA, TRH to PLGA 0.88%)?
Its trapping percentage is 98%.
